# According to ChEMBL document CHEMBL1133022, “Predicting blood-brain barrier permeation from three-dimensional molecular structure” (J Med Chem, 2000):
# Species: Mus musculus
# Experiment: BBB penetration classification
# Settings: not given
row,SMILES,Permeability
1,O=C(Cc1ccc(Cl)c(Cl)c1)N1CCCC[C@H]1CN1CCCC1,Permeable
2,Cn1c(=O)c2c(ncn2C)n(C)c1=O [CAFFEINE],Permeable
3,O=c1[nH]c2ccccc2n1CCCN1CCC(n2c(=O)[nH]c3cc(Cl)ccc32)CC1 [DOMPERIDONE],Impermeable
4,NCCc1ccc(O)c(O)c1 [DOPAMINE],Impermeable
5,C[C@]12CC[C@@H]3c4ccc(O)cc4CC[C@H]3[C@@H]1CC[C@@H]2O [ESTRADIOL],Permeable
6,O=C(Cc1ccc(Cl)c(Cl)c1)N1CCc2occc2[C@H]1CN1CC[C@@H](O)C1 (mixture of isomers),Permeable
7,CNC(=C[N+](=O)[O-])NCCSCc1ccc(CN(C)C)o1 [RANITIDINE],Impermeable
8,CNCCCN1c2ccccc2CCc2ccccc21 [DESIPRAMINE],Permeable
9,Clc1cccc(Cl)c1N=C1NCCN1 [CLONIDINE],Permeable
10,C[C@@H](CN1c2ccccc2Sc2ccccc21)N(C)C [(S)-PROMETHAZINE],Permeable
11,CN(C)CCCN1c2ccccc2Sc2ccc(Cl)cc21 [CHLORPROMAZINE],Permeable
12,CC(C)(C)c1ccc([C@H](O)CCCN2CCC(C(O)(c3ccccc3)c3ccccc3)CC2)cc1 [R-TERFENADINE],Impermeable
13,O=C(Cc1ccc(Cl)c(Cl)c1)N1CCc2occc2[C@@H]1CN1CC[C@H](O)C1 (racemic),Permeable
14,CCC(NC(=O)c1c(C)c(-c2ccccc2)nc2ccccc12)c1ccccc1 (stereo unspecified),Permeable
15,CCCC(C)C1(CC)C(=O)NC(=S)NC1=O (stereo unspecified) [THIOPENTAL],Permeable
16,CC(C)(C)c1ccc([C@@H](O)CCCN2CCC(C(O)(c3ccccc3)c3ccccc3)CC2)cc1,Impermeable
17,CC(C)(C)c1ccc(C(=O)CCCN2CCC(OC(c3ccccc3)c3ccccc3)CC2)cc1 [EBASTINE],Impermeable
18,CCn1cc(C(=O)O)c(=O)c2cc(F)c(N3CCNCC3)cc21 [NORFLOXACIN],Impermeable
19,O=C1CC[C@@]2(O)[C@H]3Cc4ccc(O)c5c4[C@@]2(CCN3CC2CC2)[C@H]1O5 [NALTREXONE],Permeable
20,C[C@H](CN1c2ccccc2Sc2ccccc21)N(C)C,Permeable
21,COc1ccc(CCN2CCC(Nc3nc4ccccc4n3Cc3ccc(F)cc3)CC2)cc1 [ASTEMIZOLE],Impermeable
22,OCCN1CCN(CCCN2c3ccccc3Sc3ccc(Cl)cc32)CC1 [PERPHENAZINE],Permeable
23,O=C(Cc1ccc(Cl)c(Cl)c1)N1CCc2occc2[C@H]1CN1CC[C@H](O)C1,Permeable
24,CN/C(=N/CCSCc1nc[nH]c1C)NC#N [CIMETIDINE],Impermeable
25,CSc1ccc2c(c1)N(CCC1CCCCN1C)c1ccccc1S2 (stereo unspecified) [THIORIDAZINE],Permeable

# Same assay, conditions: in vivo
row,SMILES,BBB Impermeable
1,N[C@@H](Cc1ccc(O)c(O)c1)C(=O)O [LEVODOPA],Impermeable
